For test [1], the system named is synthesis of LTB4 in human whole blood. Nature of the test: Human whole blood assay (inhibition of LTB4 synthesis, calcimycin stimulated). Conditions: heparinized human whole blood, calcimycin 20 μM, plasma LTB4. It counts as cell-based. The protocol: Compounds are additionally tested in a human whole blood assay to determine their ability to inhibit the synthesis of LTB4 in a cellular system. Compounds are combined with heparinized human whole blood and incubated for 15 minutes at 37° C. Calcimycin (20 μM final, prepared in phosphate-buffered saline, pH 7.4) is then added and the mixture is incubated for another 30 minutes at 37° C. The samples are centrifuged for 5 min at low speed (1500×g) and the plasma layer is removed. Plasma LTB4 concentrations are then measured using an antibody-based homogenous time-resolved fluorescence method (CisBio, Bedford, Mass.).

For test [2], the target named is T1, recombinant human FLAP protein (Homo sapiens, UniProt P20292).
T1 construct: made in house; host or cells: Sf9 insect cells (100,000×g membrane pellet used)
T1 sequence (P20292 1-161): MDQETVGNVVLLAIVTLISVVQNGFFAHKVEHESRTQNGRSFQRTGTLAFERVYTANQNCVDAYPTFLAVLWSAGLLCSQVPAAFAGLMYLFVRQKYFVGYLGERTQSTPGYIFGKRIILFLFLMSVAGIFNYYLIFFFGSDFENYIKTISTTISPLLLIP
Briefly: FLAP binding assay (SPA, displacement of [125I]L-691,831). The settings on record: membranes of sf9 cells expressing recombinant human FLAP; [125I]L-691,831 probe; read-out: FLAP binding IC50. The protocol: Assessment of Biological Properties 1. Binding Assay
Compounds are assessed for the ability to bind to FLAP in a binding assay that measures compound-specific displacement of an iodinated (^125I) FLAP inhibitor via a Scintillation Proximity Assay format (adapted from S. Charleson et al., Mol. Pharmacol., 1992, 41, 873-879).
Cell pellets produced from sf9 insect cells expressing recombinant human FLAP protein are resuspended in buffer A [15 mM Tris-HCl (pH 7.5), 2 mM MgCl2, 0.3 mM EDTA, 1 mM PMSF]. The cells are lysed with a Dounce homogenizer and the material is centrifuged at 10,000×g for 10 minutes. The supernatant is then collected and centrifuged at 100,000×g for 60 minutes. To prepare membrane protein for an assay, an aliquot of the 100,000×g pellet is resuspended in 1 ml of buffer A, Dounce homogenized, and finally subjected to polytron mixing (30 seconds). Membrane protein (25 μl, 5 μg) is mixed with WGA SPA beads (Amersham) and stirred for 1 h. […] (final concentrations: beads, 200 μg/well; protein, 5 μg/well; [^125I] probe, 0 08 nM/well (17 nCi/well). The plates are shaken for 2 h before reading on a Microbeta plate reader. Non-specific binding is determined by the addition of 10 μM cold L-691,831 compound.
In general terms: Displacement assays read how much labelled ligand stays bound in the presence of the test substance.

The IC50 is the midpoint of a concentration-inhibition curve. Consider `CC(C)C(C)(c1ccc(-c2cnc(N)nc2)cc1)c1noc(-c2cnccn2)n1` (stereo not drawn) [Example 137, 5-(4-{3-methyl-2-[5-(pyrazin-2-yl)-1,2,4-oxadiazol-3-yl]butan-2-yl}phenyl)pyrimidin-2-amine], for which the IC50 in test [1] was found to be 77 nM; in test [2], 2.8 nM.
Consider `COCCNc1cnc(-c2nc(C(C)(c3ccc(-c4cnc(N)nc4)cc3)C3CC3)no2)cn1` (stereo not drawn) [Example 42, 5-{4-[1-cyclopropyl-1-(5-{5-[(2-methoxyethyl)amino]pyrazin-2-yl}-1,2,4-oxadiazol-3-yl)ethyl]phenyl}pyrimidin-2-amine], for which the values for the IC50 in test [1] and in test [2] were 25 nM and 1.5 nM, respectively.
For `COCCn1cc(-c2nc([C@@](C)(c3ccc(-c4cnc(N)c(C)n4)cc3)C3CC3)no2)cn1` [Example 189, 5-[4-((R)-1-Cyclopropyl-1-{5-[1-(2-methoxy-ethyl)-1H-pyrazol-4-yl]-[1,2,4]oxadiazol-3-yl}-ethyl)-phenyl]-3-methyl-pyrazin-2-ylamine], the IC50 turned out to be 49 nM in test [1] and 13 nM in test [2].
Consider `CN(C)C(=O)Cn1cc(-c2nc(C(C)(c3ccc(-c4ccc(N)nc4F)cc3)C3CC3)no2)cn1` (stereo not drawn) [Example 278, 2-[4-(3-{1-[4-(6-Amino-2-fluoro-pyridin-3-yl)-phenyl]-1-cyclopropyl-ethyl}-[1,2,4]oxadiazol-5-yl)-pyrazol-1-yl]-N,N-dimethyl-acetamide], for which the IC50 is 150 nM in test [1] and 5 nM in test [2].
Regarding `CC(C)C(C)(c1ccc(-c2cnc(N)nc2)cc1)c1noc(N2CCN(C(C)(C)C)CC2)n1` (stereo not drawn) [Example 261, 5-(4-{1-[5-(4-tert-Butyl-piperazin-1-yl)-[1,2,4]oxadiazol-3-yl]-1,2-dimethyl-propyl}-phenyl)-pyrimidin-2-ylamine], the IC50 was 190 nM in test [1] and 11 nM in test [2].
The corresponding values for `CC(C)[C@](C)(c1ccc(-c2cnc(N)nc2)cc1)c1noc(-c2ccnn2C)n1` [Example 31, 5-(4-{(2R)-3-methyl-2-[5-(1-methyl-1H-pyrazol-5-yl)-1,2,4-oxadiazol-3-yl]butan-2-yl}phenyl)pyrimidin-2-amine] are 200 nM and 1.6 nM.
Regarding `Cc1ncsc1-c1nc(C(C)(c2ccc(-c3cnc(N)nc3)cc2)C(C)C)no1` (stereo not drawn) [Example 141, 5-(4-{3-methyl-2-[5-(4-methyl-1,3-thiazol-5-yl)-1,2,4-oxadiazol-3-yl]butan-2-yl}phenyl)pyrimidin-2-amine], the concentration for half-maximal inhibition (IC50) in test [1] amounted to 530 nM; in test [2], 1.5 nM.
Take `Cn1cc(-c2nc([C@](C)(c3ccc(-c4cnc(N)nc4)cc3)C3CC3)no2)cn1` [Example 62, 5-(4-{(1S)-1-cyclopropyl-1-[5-(1-methyl-1H-pyrazol-4-yl)-1,2,4-oxadiazol-3-yl]ethyl}phenyl)pyrimidin-2-amine]: the IC50 in test [1] is 350 nM; in test [2], 18 nM.
On to `CC(C)(c1ccc(-c2cnc(N)nc2)cc1)c1noc(-c2cn[nH]c2)n1` [Example 69, 5-(4-{2-[5-(1H-pyrazol-4-yl)-1,2,4-oxadiazol-3-yl]propan-2-yl}phenyl)pyrimidin-2-amine], for which the IC50 worked out at 120 nM in test [1] and 7.7 nM in test [2].
In the case of `CC(C)C(C)(c1ccc(-c2cnc(N)nc2)cc1)c1noc(CC(C)(C)O)n1` (stereo not drawn) [Example 225, 1-(3-{1-[4-(2-Amino-pyrimidin-5-yl)-phenyl]-1,2-dimethyl-propyl}-[1,2,4]oxadiazol-5-yl)-2-methyl-propan-2-ol], the half-maximal inhibitory concentration (IC50) in test [1] was 350 nM; in test [2], 16 nM.
Turning to `C[C@](c1ccc(-c2cnc(N)nc2)cc1)(c1noc(-c2cnc(N3CCNCC3)cn2)n1)C1CC1` [Example 267, 5-(4-{(S)-1-Cyclopropyl-[5-(3,4,5,6-tetrahydro-2H-[1,2′]bipyrazinyl-5′-yl)-[1,2,4]oxadiazol-3-yl]-ethyl}-phenyl)-pyrimidin-2-ylamine], the values for the IC50 in test [1] and in test [2] were 390 nM and 12 nM, respectively.
As to `CNC(=O)Cn1cc(-c2nc(C(C)(C)c3ccc(-c4cnc(N)nc4)cc3)no2)cn1` [Example 79, 2-[4-(3-{2-[4-(2-aminopyrimidin-5-yl)phenyl]propan-2-yl}-1,2,4-oxadiazol-5-yl)-1H-pyrazol-1-yl]-N-methylacetamide], the IC50 was determined as 2200 nM in test [1] and 150 nM in test [2].
Taken in the same sequence, the figures for `Cn1ccc(-c2nc(C(C)(c3ccc(-c4cnc(N)nc4)cc3)C3CC3)no2)n1` (stereo not drawn) [Example 26, 5-(4-{1-cyclopropyl-1-[5-(1-methyl-1H-pyrazol-3-yl)-1,2,4-oxadiazol-3-yl]ethyl}phenyl)pyrimidin-2-amine] were 160 nM and 9.1 nM.
For the compound `COCCn1cc(-c2nc([C@@](C)(c3ccc(-c4cnc(N)nc4)cc3)C(C)C)no2)cn1` [Example 63, 5-{4-[(2R)-2-{5-[1-(2-methoxyethyl)-1H-pyrazol-4-yl]-1,2,4-oxadiazol-3-yl}-3-methylbutan-2-yl]phenyl}pyrimidin-2-amine], the IC50 in test [1] was determined as 14 nM; in test [2] it was 1.1 nM.
For `CN(C)C(=O)Cn1cc(-c2nc(C(C)(c3ccc(-c4cnc5[nH]ccc5n4)cc3)C3CC3)no2)cn1` (stereo not drawn) [Example 247, 2-[4-(3-{1-Cyclopropyl-1-[4-(5H-pyrrolo[2,3-b]pyrazin-2-yl)-phenyl]-ethyl}-[1,2,4]oxadiazol-5-yl)-pyrazol-1-yl]-N,N-dimethyl-acetamide], the IC50 in test [1] was 300 nM; in test [2], 5.9 nM.
On to `CO[C@H]1CCN(C(=O)Cn2cc(-c3nc([C@@](C)(c4ccc(-c5cnc(N)nc5)cc4)C4CC4)no3)cn2)C1` [Example 221, 2-[4-(3-{(R)-1-[4-(2-Amino-pyrimidin-5-yl)-phenyl]-1-cyclopropyl-ethyl}-[1,2,4]oxadiazol-5-yl)-pyrazol-1-yl]-1-((S)-3-methoxy-pyrrolidin-1-yl)-ethanone], for which the IC50 in test [1] is 150 nM; in test [2] it was 6.2 nM.
Regarding `CC(C)C(C)(c1ccc(-c2cnc(N)nc2)cc1)c1noc(N2CCC(S(C)(=O)=O)CC2)n1` (stereo not drawn) [Example 208, 5-(4-{1-[5-(4-Methanesulfonyl-piperidin-1-yl)-[1,2,4]oxadiazol-3-yl]-1,2-dimethyl-propyl}-phenyl)-pyrimidin-2-ylamine], the IC50 turned out to be 250 nM in test [1] and 13 nM in test [2].
The corresponding values for `CC(C)C(C)(c1ccc(-c2cnc(N)nc2)cc1)c1noc(-c2ccc(Cl)nc2)n1` (stereo not drawn) [Example 7, 5-(4-{2-[5-(6-chloropyridin-3-yl)-1,2,4-oxadiazol-3-yl]-3-methylbutan-2-yl}phenyl)pyrimidin-2-amine] are 560 nM and 3.1 nM.
As for `COc1cncc(-c2ccc(C(C)(c3noc(-c4cnn(C)c4)n3)C3CC3)cc2)c1` (stereo not drawn) [Example 286, 3-(4-{1-Cyclopropyl-1-[5-(1-methyl-1H-pyrazol-4-yl)-[1,2,4]oxadiazol-3-yl]-ethyl}-phenyl)-5-methoxy-pyridine], the figures for the concentration for half-maximal inhibition (IC50) in test [1] and in test [2] were 2100 nM and 16 nM, respectively.
Take `CN(C)C(=O)Cn1cc(-c2nc(C(C)(c3ccc(-c4ccc(N)nc4C#N)cc3)C3CC3)no2)cn1` (stereo not drawn) [Example 296]: the results for the IC50 in test [1] and in test [2] were 230 nM and 12 nM, respectively.
In the case of `CC(C)(O)CNc1cnc(-c2nc(C(C)(c3ccc(-c4cnc(N)nc4)cc3)C3CC3)no2)cn1` (stereo not drawn) [Example 44, 1-{[5-(3-{1-[4-(2-aminopyrimidin-5-yl)phenyl]-1-cyclopropylethyl}-1,2,4-oxadiazol-5-yl)pyrazin-2-yl]amino}-2-methylpropan-2-ol], the concentration for half-maximal inhibition (IC50) was found to be 150 nM in test [1] and 2.2 nM in test [2].
